Reference: patent US5369030A, “Method of inducing cellular differentiations and altering cell phenotype using ceramide analogs” (Duke University, priority 1992, dated 1994)
Where two headings read alike, the source gives them in different places. One block for each compound: values may come before it.

Legend:
HL-60 cells [1] = assay: HL-60 differentiation, H2O2 generation; format: cell-based, human
Protocol: (§1) Human myelocytic leukemia HL-60 cells (20-45 passages (American Type Culture Collection, Rockville, Md., accession no. CCL 240) were obtained and grown in RPMI 1640 medium (Sigma Chemical Co., St. Louis, Mo.) containing 10% fetal calf serum at 37° C. in 5% CO2 incubator at a cell density of 2×10^5 cells/mi. The cells were washed once with phosphate buffered saline (PBS) and resuspended in serum-free media containing insulin (5 mg/liter) and transferrin (5 mg/liter) for 2-3 hours before treatment with various compounds.
Therefore, 3 μM C14-L-t-APPD was applied to HL-60 cells either alone or in combination with subthreshold levels (0.3 nM) of 1,25-dihydroxyvitamin D3 (D3), and cell differentiation was determined at 60 and 108 hours following treatment by quantitating […] generation, a marker of HL-60 differentiation. Subthreshold levels of D3 refers to levels of D3 that are too low to induce differentiation of HL60 cells.
H2 O2 production was quantitated as described in Goodwin, B. J. and Weinberg, J. B., J. Clin. Invest. 70:699-706 (1982) and Pick, E. and Mizel, D. J. Immunol. Methods 46: 211-226 (1981). For comparison, HL60 cell differentiation obtained with 2 μM C2-ceramide alone and 0.3 nM vitamin D3 are were also determined.

[2] = test system: sphingomyelin in HL-60 cells; conditions: previous study, Okazaki, T., et al.; cited from earlier work
HL-60 cells [3] = assay: HL-60 differentiation, reduction of Nitro blue tetrazolium (NBT); format: cell-based, human; conditions: 3 μM, three days; for cells acquiring the ability to reduce NBT: control cells 10%
Protocol: as §1
HL-60 cells were treated with 3 μM of C14-D-e-APP-1 or 3 μM C14-L-e-APP-1 for three days in accordance with the procedure described in Example 3D. Cell differentiation was determined by the ability of differentiated cells to reduce Nitro blue tetrazolium (NBT) as described in Okazaki, T. et. al., J. Biol. Chem. 265:15823-15831 (1990).

HL-60 cells [4] = assay: HL-60 cell growth/proliferation, cells counted with a hemocytometer; format: cell-based, human; conditions: for IC50 / activity at 1 µM / activity at 2 µM / activity at 3 µM / activity at 4 µM / activity at 5 µM: Homo sapiens; for IC50: read-out: IC50%; for cell density: starting density 2×10^5 cells/ml
Protocol: as §1
HL-60 cells were treated with 3 μM of Cn-L-t-APPD with acyl chain lengths of C6, C8, C10, C12, C14, C16, and C18 (m=4, 6, 8, 10, 12, 14 and 16) in fresh ehtanol solution or with an ethanol vehicle and cell growth was determined following three days of treatment. Cell growth was quantified using a hemocytometer. Cell viability was judged by the ability to exclude trypan blue dye. Viability was always more than 80% unless otherwise described.
HL-60 cells (starting cell density of 2×10^5 cells/ml) were treated with different concentrations of C14-L-t-APPD and cells were counted following 24 and 72 hours of treatment. The results are representative of three experiments. A 1μM dose of C14-L-t-APPD had little or no effect on cell growth at 24 or 72 hours (approximately 105% and 130% of control, respectively). A 2μM dose inhibited cell growth to approximately 65% of the control at both 24 and 72 hours. […] The IC50% was approximately 2 μM (10 fmol/cell). IC50% is the concentration of test compound that causes 50% inhibition of cell growth in comparison with controls. Thus, similar to results with C2-ceramide, C14-APPD inhibited cell proliferation at different durations of treatment.
HL-60 cells (starting cell density of 2×10^5 cells/ml) were treated with 3 μM Cn-L-t-APPD derivatives with N-acyl chain lengths of C6, C8, C10, C12, C14, C16, and C18 (m=4,6,8,10, 12, 14, and 16) and cells were counted at 0, 12, 36, 60, 84 and 108 hours post treatment. The results are representative of 3 experiments.
N-acyl derivatives of 2-amino-1-(4'-nitrophenyl)-1,3-propanediol (Cn-D-t-ANPPD) were tested to determine the effects of chain length on HL-60 cell growth as described in Examples 3 A. HL-60 cells (at a starting cell density of 2×10^5 cells/ml) were treated with 3 μM of the diff analogs (C6, C8, C10, C12, C14, C16 and C18) of Cn-D-t-ANPPD, and cell growth was determined at three days. The control received no Cn-D-t-ANPPD. Treatment of HL-60 cells with C2-ceramide is included for comparison.
HL-60 cells were treated with the indicated concentrations and cell growth was determined following three days of treatment as described in Example 3B.
The suitability of phenylaminopropanediol derivatives as analogs of ceramide allowed further investigation of the structural requirements for ceramide-mediated biology. For these experiments, C14 (N-myristoyl) derivatives of different phenylaminoalcohols were synthesized and examined for their biologic activity. HL-60 cells (starting cell density of 2×10^5 cells/ml) were treated with 3 μM of C14 derivatives C14-L-t-APPD, C14-D-t-ANPPD, C14-D-e-APP-1, C14-L-e-APP-1, C14-APP-3 and C14-D-APP3. The structures of these compounds are provided in Table I. Cell growth was determined at 3 days as described in Example 3A. The results shown are averages of two determinations, and are representative of five different experiments.
and C14-L-e-APP-1 HL-60 cells were treated as described in Example 3B. growth was determined after 3 days of treatment.

HL-60 cells [5] = assay: Uptake of [3H]-labeled compounds; format: cell-based, human; conditions: [3H]-labeled compound
Protocol: (1R, 2S) 2-(N-[^3 H]-myristoylamino)-1-phenyl-1propanol ([^3 H] C14-L-e-APP-1) and (1S, 2R) 2-(N-[^3 H]-myristoylamino)-1-phenyl-1-propanol ([^3 H]C14-D-e-APP-1) were prepared following the general procedures of Example 1 for synthesis of N-acyl-amino alcohols using [^3 H]-myristoyl chloride. Specific activity was ~3×10^3 cpms/nmol. [^3 H] myristoyl chloride was made from 9,10-[^3 H]-myristic acid and oxalyl chloride in dry benzene.
In studies using [^3 H]-labeled C14-D-e-APP-1 and C14-L-e-APP-1, uptake of the two compounds was nearly identical with 21% of [3 H]-C14-D-e-APP-1 taken up and 20% of [3 H]-C14-L-e-APP-1 taken up.

HL-60 cells [6] = conditions: Okazaki et al.; cited from earlier work
HL-60 cells [7] = conditions: Okazaki et al.; cited from earlier work; remark: listed apart in the source
[8] = Example 5, 3 μM C14 derivatives, 3 days
[9] = HL-60, 72 h, Example 5, Table IV, 3 days, read-out: CELL GROWTH (% OF CONTROL)
[10] = HL-60, 72 h, Example 5, Table IV, 3 μM, 3 days, read-out: CELL GROWTH (% OF CONTROL)
[11] = HL-60, 24 h, Example 3B, 24 hours, read-out: cell growth, % of control
[12] = HL-60, 72 h, Example 3B, 72 hours, read-out: cell growth, % of control

Compound: C=C1/C(=C\C=C2/CCC[C@]3(C)[C@@H]([C@H](C)CCCC(C)(C)O)CC[C@@H]23)C[C@@H](O)C[C@@H]1O [1,25-dihydroxyvitamin D3, reference compound]
H2O2 generation (HL-60 cells [1]; 0.3 nM 1,25-dihydroxyvitamin D3, 60 hours): approximately 0.4 nmol H2O2 /10^5 cells | H2O2 generation (HL-60 cells [1]; 0.3 nM 1,25-dihydroxyvitamin D3, 108 hours): ~0.2 nmol/10^5 cells | hydrolysis of sphingomyelin (in words) [2]: caused hydrolysis of sphingomyelin in HL-60 cells

Compound: CCCCCCCCCCCCCC(=O)N[C@@H](C)[C@H](O)c1ccccc1 [C14-L-e-APP-1]
level of differentiation (in words) (HL-60 cells [3]; NBT reduction): little activity over control | cells acquiring the ability to reduce NBT (HL-60 cells [3]): 12% | inhibition of HL-60 cell growth (in words) (HL-60 cells [4]; Example 5, Table IV experiment, 1-5 μM, 3 days): no activity | cell growth, % of control (HL-60 cells [4]; [8]): 87% | activity at 1 µM (HL-60 cells [4]; [9]): 101% | activity at 2 µM (HL-60 cells [4]; [9]): 100% | activity at 3 µM (HL-60 cells [4]; [10]): 99% | activity at 4 µM (HL-60 cells [4]; [9]): 100% | activity at 5 µM (HL-60 cells [4]; [9]): 99%

Compound: CCCCCCCCCCCCC/C=C/[C@@H](O)[C@@H](N)CO [sphingosine, Sphingosine]
HL-60 cell growth (in words) (HL-60 cells [6]): inhibit HL-60 cell growth | HL-60 cell differentiation (in words) (HL-60 cells [7]): do not mimic the effects of ceramide on cell differentiation

Second part, led by results:

IC50% per cell number (HL-60 cells [4]; Example 5, Table IV experiment, HL-60 growth, 3 days): 125 fmol/10^5 cells | IC50 (HL-60 cells [4]; 72 h, Example 5, Table IV experiment, HL-60 growth, 3 days): 2.5 µM
Compound: CCCCCCCCCCCCCC(=O)N[C@H](C)[C@@H](O)c1ccccc1 [C14-D-e-APP-1]
cells acquiring the ability to reduce NBT (HL-60 cells [3]): 42% | cell growth, % of control (HL-60 cells [4]; [8]): approximately 15% | activity relative to reference (in words) (HL-60 cells [4]; Example 5, 3 μM, 3 days, inhibition of cell growth): as effective as C2-ceramide | activity at 1 µM (HL-60 cells [4]; [9]): 100% | activity at 2 µM (HL-60 cells [4]; [9]): 71% | activity at 3 µM (HL-60 cells [4]; [10]): 45% | activity at 4 µM (HL-60 cells [4]; [9]): 20% | activity at 5 µM (HL-60 cells [4]; [9]): 10%

IC50% per cell (HL-60 cells [4]; Example 3B, 50% inhibition of cell growth, 2×10^5 cells/ml): approximately 10 fmol/cell | IC50 (HL-60 cells [4]; HL-60, Example 3B, 50% inhibition of cell growth, 2×10^5 cells/ml, 24 and 72 hours): ~2 µM
Compound: CCCCCCCCCCCCCC(=O)N[C@@H](CO)[C@@H](O)c1ccccc1 [C14-L-t-APPD, N-MYRISTOYL-L-THREO-2-AMINO-1-PHENYL-1,3-PROPANDIOL]
effect of combination on cell differentiation (in words) (HL-60 cells [1]; 3 μM C14-L-t-APPD + 0.3 nM 1,25-dihydroxyvitamin D3): synergistic effect on cell differentiation | H2O2 generation, combination (HL-60 cells [1]; 3 μM C14-L-t-APPD + 0.3 nM 1,25-dihydroxyvitamin D3, 60 hours): approximately 1.1 nmol H2O2 /10^5 cells | H2O2 generation, combination (HL-60 cells [1]; 3 μM C14-L-t-APPD + 0.3 nM 1,25-dihydroxyvitamin D3, 108 hours): ~1.0 nmol H2O2 /10^5 cells | H2O2 generation (HL-60 cells [1]; 3 μM C14-L-t-APPD alone, 60 hours): approximately 0.3 nmol/10^5 cells | H2O2 generation (HL-60 cells [1]; 3 μM C14-L-t-APPD alone, 108 hours): ~0.5 nmol/10^5 cells | effect on differentiation relative to C2-ceramide (in words) (HL-60 cells [1]; 3 μM C14-L-t-APPD vs 2 μM C2-ceramide): nearly identical to those of 2 μM C2-ceramide | cell growth, % of control (HL-60 cells [4]; Example 3A, 3 μM Cn-L-t-APPD, three days): ~15% | potency relative to C2-ceramide (in words) (HL-60 cells [4]; Example 3C, 3 μM): equally potent to C2-ceramide | cell density (HL-60 cells [4]; Example 3C, 3 μM, 84 hours): 100000 mL⁻¹ | cell density (HL-60 cells [4]; Example 3C, 3 μM, 108 hours): 200000 mL⁻¹ | inhibition of cell growth (in words) (HL-60 cells [4]; Example 3C, 3 μM, time course to 108 hours): able to inhibit cell growth by significant amounts | activity at 1 µM (HL-60 cells [4]; [11]): ~105% | activity at 2 µM (HL-60 cells [4]; [11]): ~65% | activity at 3 µM (HL-60 cells [4]; HL-60, 24 h, Example 3B, 3 μM, 24 hours, read-out: cell growth, % of control): < 10% | activity at 4 µM (HL-60 cells [4]; [11]): < 10% | activity at 1 µM (HL-60 cells [4]; [12]): ~130% | activity at 2 µM (HL-60 cells [4]; [12]): ~65% | activity at 3 µM (HL-60 cells [4]; HL-60, 72 h, Example 3B, 3 μM, 72 hours, read-out: cell growth, % of control): < 10% | activity at 4 µM (HL-60 cells [4]; [12]): < 10%

uptake (HL-60 cells [5]): 21%
Compound: [3H]C(CCCC)C([3H])CCCCCCCC(=O)N[C@H](C)[C@@H](O)c1ccccc1 (stereo partly drawn) [[3 H]-C14-D-e-APP-1, (1S, 2R) 2-(N-[^3 H]-myristoylamino)-1-phenyl-1-propanol]

uptake (HL-60 cells [5]): 20%
Compound: [3H]C(CCCC)C([3H])CCCCCCCC(=O)N[C@@H](C)[C@H](O)c1ccccc1 (stereo partly drawn) [[3 H]-C14-L-e-APP-1, (1R, 2S) 2-(N-[^3 H]-myristoylamino)-1-phenyl-1propanol]
